Assay results from patent US20090048269A1 (AstraZeneca AB, priority 2007, published 2009).

The compounds below were run against T1, human ALK5 (Homo sapiens, UniProt P36897) (assay: ALK5 Enzyme Assay 2 (fluorescence polarisation probe displacement)). Conditions: read-out: EAA2: activity (μM) using Enzyme Assay 2.
T1 sequence (P36897 162-503): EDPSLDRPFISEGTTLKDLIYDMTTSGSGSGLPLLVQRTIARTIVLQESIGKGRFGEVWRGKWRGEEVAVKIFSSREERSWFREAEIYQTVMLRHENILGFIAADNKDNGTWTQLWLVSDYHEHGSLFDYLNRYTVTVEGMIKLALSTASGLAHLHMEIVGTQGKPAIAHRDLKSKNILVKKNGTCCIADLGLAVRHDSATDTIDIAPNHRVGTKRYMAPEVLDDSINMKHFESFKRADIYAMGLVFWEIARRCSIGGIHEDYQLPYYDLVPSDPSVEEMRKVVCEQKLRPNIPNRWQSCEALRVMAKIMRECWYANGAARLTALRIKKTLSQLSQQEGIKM
Type: binding
Design: 6His tagged human ALK5 (residues162-503) was grown and purified from insect cells; 6His; made in house; host or cells: insect cells
Experimental: The ability of a compound to bind and inhibit ALK5 can be measured by its capacity to displace a probe molecule from recombinant ALK5 in an in vitro assay. Provided the probe molecule is derivatised with a fluorescent probe or is fluorescent itself, the binding affinity can be measured using Fluorescence Polarisation (FP). […] Assay measurements were performed in 50 mM HEPES pH7.4, 10 mM MgCl2, 1 mM DTT, 0.01% CHAPS in a final assay volume of 12 μl. Briefly 6 μl of ALK5 protein, final concentration of 3 μg/mL, was added to each well of a 384 well assay plate containing 12 nL of each concentration of test compound dissolved in DMSO. 6 μL of a solution containing an ALK5 FP probe ((2Z)-3-(6-{4-[2-({4-[(6-chloro[1,3]dioxolo[4,5-b]pyridin-7-yl)amino]-5-(1-methylethoxy)quinazolin-7-yl}oxy)ethyl]piperazin-1-yl}-6-oxohexyl)-2-[(2E,4E)-5-(3-ethyl-1,1-dimethyl-6,8-disulfo-1H-benzo[e]indolium-2-yl)penta-2,4-dien-1-ylidene]-1,1-dimethyl-6-sulfo-2,3-dihydro-1H-benzo[e]indole-8-sulfonate), final concentration 50 nM, and ATP, final concentration 1 μM.

Row | Compound | IC50 [µM]
1 | 3-{[4-(2,6-Dimethylpyridin-3-yl)oxypyridin-2-yl]amino}-N-(1-methylpiperidin-4-yl)benzamide [Example 70] | 0.0323
2 | Cc1ccc(Oc2ccnc(Nc3cccc(C(=O)N4CC[C@@H](S(C)(=O)=O)C4)c3)c2)c(C)n1 (single isomer, unassigned) [Example 139] | 0.0495
3 | Cc1ccc(Oc2ccnc(Nc3cccc(C(=O)N(C)C)c3)c2)c(C)n1 [Example 62, 3-{[4-(2,6-Dimethylpyridin-3-yl)oxypyridin-2-yl]amino}-N,N-dimethylbenzamide] | 0.0535
4 | Cc1ccc(Oc2ccnc(Nc3cccc(C(=O)NCc4cnccn4)c3)c2)c(C)n1 [Example 64, 3-{[4-(2,6-Dimethylpyridin-3-yl)oxypyridin-2-yl]amino}-N-(pyrazin-2-ylmethyl)benzamide] | 0.0415
5 | CC(=O)NC1CCN(C(=O)c2cccc(Nc3cc(Oc4ccc(C)nc4C)ccn3)c2)C1 (stereo not shown) [Example 65, N-[1-(3-{[4-(2,6-Dimethylpyridin-3-yl)oxypyridin-2-yl]-amino}benzoyl)pyrrolidin-3-yl]acetamide] | 0.0457
6 | Cc1ccc(Oc2ccnc(Nc3cccc(C(=O)NCC(N)=O)c3)c2)c(C)n1 [Example 67, N-(2-Amino-2-oxoethyl)-3-{[4-(2,6-dimethylpyridin-3-yl)-oxypyridin-2-yl]amino}benzamide] | 0.054
7 | Cc1ccc(Oc2ccnc(Nc3cccc(C(=O)N4CCN(CC(N)=O)CC4)c3)c2)c(C)n1 [Example 69, 2-[4-(3-{[4-(2,6-Dimethylpyridin-3-yl)oxypyridin-2-yl]amino}-benzoyl)piperazin-1-yl]acetamide] | 0.0827
8 | Cc1ccc(Oc2ccnc(Nc3cccc(C(=O)N4CCN(C)CC4)c3)c2)c(C)n1 [Example 71, [3-{[4-(2,6-Dimethylpyridin-3-yl)oxypyridin-2-yl]amino}phenyl]-(4-methylpiperazin-1-yl)methanone] | 0.096
9 | Cc1cc(Oc2ccnc(Nc3cccc(CN4CCN(C)CC4)c3)c2)c(-c2ccccn2)nc1C [Example 78, 4-(5,6-Dimethyl-2-pyridin-2-ylpyridin-3-yl)oxy-N-{3-[(4-methyl-piperazin-1-yl)methyl]phenyl}pyridin-2-amine] | 0.0384
10 | Cc1cc(Oc2ccnc(Nc3cccc(OCCN4CCOCC4)c3)c2)c(-c2ccccn2)nc1C [Example 79, 4-(5,6-Dimethyl-2-pyridin-2-ylpyridin-3-yl)oxy-N-[3-(2-morpholin-4-ylethoxy)phenyl]pyridin-2-amine] | 0.0396
11 | Cc1cc(Oc2ccnc(Nc3cc(CO)cc(S(N)(=O)=O)c3)c2)c(-c2ccccn2)nc1C [Example 87, 3-{[4-(5,6-Dimethyl-2-pyridin-2-ylpyridin-3-yl)oxypyridin-2-yl]-amino}-5-(hydroxymethyl)benzenesulfonamide] | 0.0731
12 | CCn1nccc1Nc1cc(Oc2ccc(C)nc2C)ccn1 [Example 88, 4-[(2,6-Dimethylpyridin-3-yl)oxy]-N-(1-ethyl-1H-pyrazol-5-yl)-pyridin-2-amine] | 0.205
13 | Cc1ccc(Oc2ccnc(Nc3ccc(C#N)cc3)c2)c(C)n1 [Example 89, 4-{[4-(2,6-Dimethylpyridin-3-yl)oxypyridin-2-yl]amino}-benzonitrile] | 0.346
14 | COc1ccc(Nc2cc(Oc3ccc(C)nc3C)ccn2)cc1 [Example 90, 4-(2,6-Dimethylpyridin-3-yl)oxy-N-(4-methoxyphenyl)pyridin-2-amine] | 0.135
15 | Cc1ccc(Oc2ccnc(Nc3ccc(CC#N)cc3)c2)c(C)n1 [Example 91, 2-(4-{[4-(2,6-Dimethylpyridin-3-yl)oxypyridin-2-yl]amino}phenyl)-acetonitrile] | 0.0286
16 | Cc1ccc(Oc2ccnc(Nc3ccc(C(N)=O)cc3)c2)c(C)n1 [Example 92, 4-{[4-(2,6-Dimethylpyridin-3-yl)oxypyridin-2-yl]amino}benzamide] | 0.0694
17 | Cc1ccc(Oc2ccnc(Nc3ccccc3)c2)c(C(=O)NCC2CC2)n1 [Example 93, 3-(2-Anilinopyridin-4-yl)oxy-N-(cyclopropylmethyl)-6-methyl-pyridine-2-carboxamide] | 0.154

Stronger by IC50, values ahead:

Row | IC50 [µM] | Compound
18 | 0.0259 | CC(=O)N(C)c1ccc(Nc2cc(Oc3cc(C)c(C)nc3-c3ccccn3)ccn2)cc1 [Example 83, N-(4-{[4-(5,6-Dimethyl-2-pyridin-2-ylpyridin-3-yl)oxypyridin-2-yl]-amino}phenyl)-N-methylacetamide]
19 | 0.0227 | Cc1ccc(Oc2ccnc(Nc3cccc(C(=O)N4CCC4)c3)c2)c(C)n1 [Example 61, Azetidin-1-yl-(3-{[4-(2,6-dimethylpyridin-3-yl)oxypyridin-2-yl]-amino}phenyl)methanone]
20 | 0.022 | Cc1ccc(Oc2ccnc(Nc3cccc(C(=O)N(C4CCOCC4)C4CC4)c3)c2)c(C)n1 [Example 60, N-Cyclopropyl-3-{[4-(2,6-dimethylpyridin-3-yl)oxypyridin-2-yl]-amino}-N-(oxan-4-yl)benzamide]
21 | 0.0214 | Cc1ccc(Oc2ccnc(Nc3cccc(C(=O)N(C4CC4)C4CCN(C)CC4)c3)c2)c(C)n1 [Example 59, N-Cyclopropyl-3-{[4-(2,6-dimethylpyridin-3-yl)oxypyridin-2-yl]-amino}-N-(1-methylpiperidin-4-yl)benzamide]
22 | 0.0185 | Cc1ccc(Oc2ccnc(Nc3cccc(C(=O)N4CCC(S(C)(=O)=O)C4)c3)c2)c(C)n1 (stereo not shown) [Example 66, (3-{[4-(2,6-Dimethylpyridin-3-yl)oxypyridin-2-yl]amino}phenyl)-(3-methylsulfonylpyrrolidin-1-yl)methanone]
23 | 0.0169 | CNS(=O)(=O)Cc1ccc(Nc2cc(Oc3cc(C)c(C)nc3-c3ccccn3)ccn2)cc1 [Example 80, 1-(4-{[4-(5,6-Dimethyl-2-pyridin-2-ylpyridin-3-yl)oxypyridin-2-yl]-amino}phenyl)-N-methylmethanesulfonamide]
24 | 0.016 | Cc1cc(Oc2ccnc(Nc3cc(NS(C)(=O)=O)cc(C(N)=O)c3)c2)c(-c2ccccn2)nc1C [Example 84, 3-{[4-(5,6-Dimethyl-2-pyridin-2-ylpyridin-3-yl)oxypyridin-2-yl]-amino}-5-methanesulfonamidobenzamide]
25 | 0.0148 | Cc1cc(Oc2ccnc(Nc3cccc(NS(C)(=O)=O)c3)c2)c(-c2ccccn2)nc1C [Example 76, N-(3-{[4-(5,6-Dimethyl-2-pyridin-2-ylpyridin-3-yl)oxypyridin-2-yl]-amino}phenyl)methanesulfonamide]
26 | 0.0143 | Cc1ccc(Oc2ccnc(Nc3cccc(C(=O)N4CC[C@H](S(C)(=O)=O)C4)c3)c2)c(C)n1 (single isomer, unassigned) [Example 138]
27 | 0.0136 | Cc1cc(Oc2ccnc(Nc3ccc(OCC(O)CNC(C)C)cc3)c2)c(-c2ccccn2)nc1C (stereo not shown) [Example 75, 1-(4-{[4-(5,6-Dimethyl-2-pyridin-2-ylpyridin-3-yl)oxypyridin-2-yl]-amino}phenoxy)-3-(propan-2-ylamino)propan-2-ol]
28 | 0.0111 | Cc1cc(Oc2ccnc(Nc3ccc(C(N)=O)cc3)c2)c(-c2ccccn2)nc1C [Example 81, 4-{[4-(5,6-Dimethyl-2-pyridin-2-ylpyridin-3-yl)oxypyridin-2-yl]-amino}benzamide]
29 | 0.0108 | Cc1cc(Oc2ccnc(Nc3cccc(C(=O)NC4CC4)c3)c2)c(-c2ccccn2)nc1C [Example 72, N-Cyclopropyl-3-{[4-(5,6-dimethyl-2-pyridin-2-ylpyridin-3-yl)-oxypyridin-2-yl]amino}benzamide]
30 | 0.00895 | Cc1ccc(Oc2ccnc(Nc3cccc(C(=O)N4CCCC(C(N)=O)C4)c3)c2)c(C)n1 (stereo not shown) [Example 68, 1-(3-{[4-(2,6-Dimethylpyridin-3-yl)oxypyridin-2-yl]amino}-benzoyl)piperidine-3-carboxamide]
31 | 0.00862 | Cc1cc(Oc2ccnc(Nc3cccc(-c4cnco4)c3)c2)c(-c2ccccn2)nc1C [Example 77, 4-(5,6-Dimethyl-2-pyridin-2-ylpyridin-3-yl)oxy-N-[3-(1.3-oxazol-5-yl)phenyl]pyridin-2-amine]
32 | 0.00842 | CC(=O)Nc1ccc(Nc2cc(Oc3cc(C)c(C)nc3-c3ccccn3)ccn2)cc1 [Example 86, N-(4-{[4-(5,6-Dimethyl-2-pyridin-2-ylpyridin-3-yl)oxypyridin-2-yl]-amino}phenyl)acetamide]
33 | 0.00823 | Cc1ccc(Oc2ccnc(Nc3cccc(C(=O)NCc4ncc[nH]4)c3)c2)c(C)n1 [Example 63, 3-{[4-(2,6-Dimethylpyridin-3-yl)oxypyridin-2-yl]amino}-N-(1H-imidazol-2-ylmethyl)benzamide]
34 | 0.00488 | Cc1cc(Oc2ccnc(Nc3ccc(CC#N)cc3)c2)c(-c2ccccn2)nc1C [Example 74, 2-(4-{[4-(5,6-Dimethyl-2-pyridin-2-ylpyridin-3-yl)oxypyridin-2-yl]-amino}phenyl)acetonitrile]
